Measured values reported in a melting point compilation (Tetko et al.; mined from patent text by program, amines drawn as free bases though some values may be those of a salt).

First: CN(CCCCNC(=NCCCOc1cccc(CN2CCCCC2)c1)NC#N)CCC(c1ccc(F)cc1)c1ccccn1 (stereo not given)
Second: COC(=O)c1cccc(CN2C(=O)C(CCOc3ccc(CCNC(=O)OC(C)(C)C)cc3)Oc3ccccc32)c1 (stereo not given)
The melting point of the first is lower: 105 to 110 °C for the first, 112 to 113 °C for the second.

First: CC(Sc1nc(N)cc(Cl)n1)c1cc2ccccc2cn1 (stereo not given)
Second: Oc1ccc2ccc(OCc3ccc4ccccc4n3)cc2c1
The melting point of the first is lower: 179 to 180 °C for the first, 218 to 220 °C for the second.

First: CC(=O)Nc1cc(N(C)C)c([N+](=O)[O-])cc1C(=O)O
Second: CCOC(=O)c1c(C)cc(NC(=O)CCl)c(C(=O)O)c1C
The melting point of the first is higher: 230 to 255 °C for the first, 124 to 125 °C for the second.

Compared with COc1ccc(Cn2nnc(-c3cccc(C(=O)Cl)c3)n2)cc1, COc1ccc(CNn2nnc3c(-c4ccco4)ncnc32)cc1 is higher in melting point: 122 to 124 °C for the first, 166 to 168 °C for the second.

First: CC(CC(=O)Nc1cc(-c2ccnc3c(C(=O)c4cccs4)cnn23)ccc1F)C(F)(F)F (stereo not given)
Second: CC(=O)c1cccc(-c2cnn3c(-c4cccc(NC(=O)CC(C)C)c4)ccnc23)c1
The melting point of the first is lower: 185 to 186 °C for the first, 190 to 192 °C for the second.

First: Cn1nnc(-c2cc3c(Oc4ccc(Cl)cc4)cncc3s2)n1
Second: CC(C)(Oc1ccc(Cl)cc1)C(=O)NCCCn1ccnc1
The melting point of the first is higher: 131 to 133 °C for the first, 83 to 84 °C for the second.

Compared with O=S(=O)(O)c1ccc(Nc2cnnc3cc(Cl)ccc23)cc1, O=S(=O)(c1ccc(O)cc1)c1ccc(Cl)cc1 is lower in melting point: > 280 °C for the first, 143 to 145 °C for the second.

Compared with COc1ccc(Nc2ncc3cc(-c4c(Cl)cccc4Cl)c(=O)n(C)c3n2)cc1C, COc1cc(S(=O)(=O)C(c2cc(F)ccc2F)c2cc(N)ncc2Cl)ccc1Cl (stereo not given) is lower in melting point: 218 to 220 °C for the first, 198 to 200 °C for the second.

First: COc1ccc(N2CCN(c3c(C)c(C)c4c(c3C)C(O)C(C)(C)O4)CC2)cc1 (stereo not given)
Second: COC(=O)C1c2c(C)c(OC(=O)c3ccc([N+](=O)[O-])cc3)c(C)c(C)c2OC1(C)C (stereo not given)
The melting point of the first is lower: 159 to 161 °C for the first, 215 to 216 °C for the second.

Compared with CC(CN(C)C)Oc1ccc(/C=C/C(=O)O)cc1 (stereo not given), COc1ccc(C=CC(=O)C2C(=O)C=C(C)OC2=O)cc1O (stereo not given) is lower in melting point: 235 °C for the first, 217 to 219 °C for the second.

Compared with CN1CCC(C)(c2nc(-c3ccncc3)c(-c3ccc(F)cc3)[nH]2)CC1, CNC(=O)Nc1n[nH]c(-c2ccncc2)c1-c1ccc(F)cc1 is lower in melting point: 227 to 229 °C for the first, 212 to 213 °C for the second.

First: CCNC(=O)c1cc2c(Cl)ccc(-n3c(=O)cc(C(F)(F)F)n(C)c3=O)c2o1
Second: CCCCCCOc1cc(-n2c(=O)cc(C(F)(F)F)n(C)c2=O)c(F)cc1Cl
The melting point of the first is higher: 225 to 226 °C for the first, 60 to 63 °C for the second.

First: Cc1ccc(S(=O)(=O)O)cc1C=C1C(=O)C2(C)CCC1C2(C)C (stereo not given)
Second: CC(=O)N1CCC(C(=O)c2ccc(F)cc2F)CC1
The melting point of the first is higher: 130 °C for the first, 97 °C for the second.

Compared with CCOC(=O)CNC(=O)CC(O)CBr (stereo not given), O=C(O)C/C=C/CC(=O)O is higher in melting point: 59 to 61 °C for the first, 197 to 198 °C for the second.

First: CCCc1nc2c(N)nc(C)c(C)c2n1CCCCCS(C)(=O)=O
Second: CCOC(=O)C(CC)Sc1nc2c(c(=O)n(CCOC)c(=O)n2C)n1Cc1cccc(Br)c1 (stereo not given)
The melting point of the first is higher: 145 to 146 °C for the first, 58 °C for the second.

First: Cc1ccc2c3c(c(=O)oc2c1)CN(Cc1ccccc1)CC3
Second: Cc1ccc2c(c1)c1c(n2Cc2ccccc2)CCCC1=O
The melting point of the first is lower: 109 to 111 °C for the first, 179 to 180 °C for the second.

Compared with COc1ccc(-c2nc(-c3ccc4oc(=O)[nH]c4c3)cs2)cc1OC, Cc1cccc(-c2nc(-c3ccc(S(C)=O)cc3)sc2-c2ccnc(C)c2)c1 (stereo not given) is lower in melting point: 271 to 272 °C for the first, 128 to 130 °C for the second.

Compared with Oc1cc2c3ccc(O)c(O)c3n(Cc3ccc(C(F)(F)F)cc3)c2cc1O, CCc1nc2c(C)cc(C)nc2n1Cc1ccc(C(c2ccccc2)C(Br)C(=O)O)cc1 (stereo not given) is lower in melting point: 266 to 270 °C for the first, 117 to 126 °C for the second.

First: Cc1ccc2c(=O)c(C(=O)O)cn(CCOC=O)c2n1
Second: CCOC(=O)c1cc2ccc(F)c(C)c2[nH]1
The melting point of the first is higher: 213 to 214 °C for the first, 149 °C for the second.

First: O/C(=C\c1nc2ccccc2c2nccn12)c1cccs1
Second: O=C(C(=Cc1ccccc1)c1ccccc1)c1ccc(O)cc1
The melting point of the first is lower: 128 °C for the first, 186 to 190 °C for the second.

First: COc1ccc(CN2CCOCC2)c(OC)c1-c1ccc(C[C@H](NC(=O)c2c(Cl)cccc2Cl)C(=O)O)cc1
Second: CC(C)(C)c1cc(NC(=O)Nc2ccc(OCCN3CCOCC3)c3ccccc23)[nH]n1
The melting point of the first is higher: 241 to 242 °C for the first, 206 to 207 °C for the second.

First: O=C(NS(=O)(=O)c1ncccc1C(F)(F)F)Oc1ccccc1
Second: COc1ccnc(NC(=O)NS(=O)(=O)c2ccccc2-c2nn(C)c(=O)o2)n1
The melting point of the first is lower: 130 to 134 °C for the first, 223 to 224 °C for the second.

First: CCN(CC)Cc1ccc2c(c1)-c1[nH]nc(-c3ccsc3)c1C2
Second: CCc1ccc(-c2[nH]nc3c2C(=O)c2c(NC(C)=O)cccc2-3)cc1
The melting point of the first is lower: 157 to 158 °C for the first, 294 °C for the second.

Compared with COC(=O)c1c(N)n(C)c2ccccc12, COC(=O)c1cccc(F)c1OC is lower in melting point: 192 to 196 °C for the first, 99 to 101 °C for the second.

First: O=[N+]([O-])c1cc(O)ccc1/C=C/c1ccc(O)cc1
Second: CNC(=O)c1cccc(C(O)c2ccc(F)cc2)c1 (stereo not given)
The melting point of the first is higher: 237 to 240 °C for the first, 138 to 139 °C for the second.

Compared with COC(=O)c1nc(Cl)c(F)c(N)c1Br, Cc1nc(N)nc(N)c1-c1ccc(F)cc1Cl is higher in melting point: 138 to 139 °C for the first, 238 °C for the second.

Compared with Cc1ccc(NCc2ccc[nH]2)cc1O, CC(=O)NCc1ccc(CN2CCN(c3cccc(C)c3)CC2)cc1 is lower in melting point: 115 to 117 °C for the first, 80 to 81 °C for the second.

CC(=O)N1CCC2(CC1)Cc1ccccc1O2 and CN(C)CCCC1(O)c2ccccc2OC12CCCCCC2 (stereo not given) cannot be ordered by melting point: 94 to 97 °C for the first, 96 to 98.5 °C for the second.

First: C#CCN1C(=O)CCC1C(N)=O (stereo not given)
Second: C=CCN1C(=O)N(CC=C)[C@@H](C(=O)O)[C@H]1C(=O)O
The melting point of the first is lower: 145 to 147 °C for the first, 161 to 163 °C for the second.

Compared with N#CCCNC(=O)c1cccc(-c2ccc3c(c2)N(c2cc(Cl)ccc2Cl)CC3)c1, O=C(c1ccc([N+](=O)[O-])cc1Cl)N1CCCCc2ccccc21 is lower in melting point: 189 to 190 °C for the first, 112 to 114 °C for the second.

First: CCOc1cc2c(Nc3cc(OC)c(Cl)cc3Cl)c(C#N)cnc2cc1OCCCN1CCN(C)CC1
Second: COc1c(Cl)cc(C(=O)Nc2c(Cl)cncc2Cl)c2c3ccccc3n(CC3CCCCC3)c12
The melting point of the first is lower: 137 to 138 °C for the first, 247 to 249 °C for the second.

First: OCCCc1cnoc1-c1ccc(OC(F)(F)F)cc1
Second: C=CCn1c(C)nc2c3c(ccc21)[C@@H](OCCF)[C@H](O)[C@@H](c1ccccc1)O3
The melting point of the first is lower: 50 to 51 °C for the first, 117 °C for the second.

First: CC1(C)C(C)(C)C1(Cl)c1ccc2c(c1)OCO2
Second: CN(C)C1(c2cccc(O)c2)CCC(=O)CC1
The melting point of the first is lower: 110 to 112 °C for the first, 175 to 177 °C for the second.

First: NC[C@H]1CCc2[nH]c3ccc(F)cc3c2C1
Second: CN(C)c1ccc2c(c1)C(=O)N(c1ccc3c(c1)CCN3C)C2
The melting point of the first is lower: 121 to 123 °C for the first, 268 to 270 °C for the second.

Compared with CCCOC(=O)C(Cc1ccccc1)(Cn1cncn1)c1ccccc1OC (stereo not given), CC(C)(NC(=O)C(CS)Cc1ccccc1)C(=O)OCc1ccccc1 (stereo not given) is lower in melting point: 129 to 130 °C for the first, 53 to 56 °C for the second.

First: CC(C)CC(NC(=O)Cc1cccc2ccccc12)C(=O)NC(Cc1ccccc1)C(=O)CSCc1ccco1 (stereo not given)
Second: Cc1ccc(Cn2ccc(OCc3ccccc3)c(Br)c2=O)cc1
The melting point of the first is lower: 143 to 146 °C for the first, 150 to 151 °C for the second.

Compared with CC(=O)OC1CSC(Oc2cc(-c3ccc(F)nc3)cnc2F)C(OC(C)=O)C1OC(C)=O (stereo not given), CCOC(=O)C1=C(COCc2cc(=O)n(C)c(N)n2)NC(C)=C(C(=O)OC)C1c1cccc(Cl)c1Cl (stereo not given) is higher in melting point: 135 to 136 °C for the first, 202 to 205 °C for the second.

First: Cc1cccc(-c2[nH]nnc2-c2ccc3c(c2)NC(=O)CO3)n1
Second: COc1ccc(C(=O)C2=C(O)C(=O)N(c3nnc(C)s3)C2c2cccc(C(=O)O)c2)cc1 (stereo not given)
The melting point of the first is lower: 224 °C for the first, 281 °C for the second.

First: CC(C)(C)CC(C)(C)c1cc(Cc2cc(C(C)(C)CC(C)(C)C)cc(C(C)(C)CC(C)(C)C)c2O)c(O)c(-n2nc3ccccc3n2)c1
Second: CC(C)(C)c1cc(-c2coc3c(C(C)(C)C)cc(C(C)(C)C)cc23)c(O)c(C(C)(C)C)c1
The melting point of the first is lower: 174 °C for the first, 236 to 238 °C for the second.

First: CN(C)Cc1nc(CSCCNC(=C[N+](=O)[O-])NC2CC2)cs1
Second: CCOC(=O)C(=Cc1cccn2cc(C(C)C)nc12)N=[N+]=[N-]
The melting point of the first is higher: 128 to 132 °C for the first, 66 to 68 °C for the second.

First: CC(C)(C)OC(=O)N(Cc1ccccc1)S(N)(=O)=O
Second: CC(C)(C)OC(=O)NC1CCc2ccccc2NC1=O (stereo not given)
The melting point of the first is lower: 127 °C for the first, 199 to 201 °C for the second.

Compared with CS(=O)(=O)c1cc2c(cc1O)CCNCC2, CS(=O)(=O)c1ccc(CN(C2CCOCC2)S(=O)(=O)c2ccc(Cl)cc2)cc1 is lower in melting point: 241 to 242 °C for the first, 158 to 160 °C for the second.

Compared with CC(N)=CC(=O)c1cccnc1, COc1cccc(NC(SC)=C(C#N)S(=O)(=O)C(C)C)c1 is higher in melting point: 82 °C for the first, 107 to 110 °C for the second.

Compared with CN(C)c1ccc(C2(c3ccc(N(C)C)cc3)NNC(=O)c3cc(N(C)C)ccc32)cc1, COc1ccc(P2Oc3ccccc3-c3ccccc32)cc1 (stereo not given) is lower in melting point: 265 to 270 °C for the first, 104 to 106 °C for the second.

Compared with COC(=O)C[C@H](O)C[C@H](O)C=Cc1c(-c2ccc(F)cc2)c(-c2ccc(F)cc2)c(C(=O)Nc2ccc(S(N)(=O)=O)cc2)n1C(C)C, COc1ccccc1Oc1c(NS(=O)(=O)c2ccc(C(C)(C)C)cc2)nc(-c2ncccn2)nc1OCCOc1ncc(-c2ccccn2)cn1 is lower in melting point: 208 to 210 °C for the first, 149 to 157 °C for the second.

Compared with O=Cc1c(Cl)cc(CO)cc1Cl, Cc1ccc(Cl)c2c(C)c(C(=O)O)[nH]c12 is higher in melting point: 109 to 110 °C for the first, 211 to 213 °C for the second.

First: CCCCCCCCCCCCNC(=O)c1cc(Br)c(OCC(=O)O)c(-c2ccccc2F)c1
Second: CCCc1c(OCCCOc2cccc3c2CCCC3)ccc2c1OC(CCC(O)CO)(CCC(O)CO)CC2=O (stereo not given)
The melting point of the first is higher: 128 to 138 °C for the first, 113 to 115 °C for the second.

First: OC1(c2ccc(Cl)cc2)CCN(Cc2c[nH]c3ccccc23)CC1
Second: N#CCn1nnc(NC(=O)C2c3ccccc3Oc3ccccc32)n1
The melting point of the first is higher: 213 to 214 °C for the first, 204 to 205 °C for the second.

First: Oc1cc(O)c(-c2nc(-c3ccccc3)nc(-c3ccccc3)n2)cc1Cl
Second: COc1cc(F)c2c(c1)Oc1ccccc1S2(=O)=O
The melting point of the first is higher: 255 to 265 °C for the first, 226 to 230 °C for the second.

First: CCC(=O)c1cc(Cl)ccc1NS(=O)(=O)C(F)(F)F
Second: COc1ccc(S)c(Cl)c1Cl
The melting point of the first is lower: 54 to 55 °C for the first, 81.5 to 83 °C for the second.
